Test results taken from PubChem BioAssay AID248 (DTP/NCI, 2004).
Where “and” joins values, the source holds several entries; their conditions need not be identical. Identical values can stand only once. Toxic doses and inconclusive results are not listed. No stated cut-off is given here; in the data, active means T/C of 150% or more; inactive means T/C below 125%.

Tested on: L1210 leukemia ip in BDF1 mice, survival T/C
Test: NCI In Vivo Anticancer Drug Screen. Data for tumor model L1210 Leukemia (intraperitoneal) in B6D2F1 (BDF1) mice
Conditions: endpoint: mean survival time, higher = longer survival
Outline: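 Tumor cells were implanted, animals were treated, and survival was followed. The result divides the treated measurement by the vehicle-control measurement.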

[1] = dose: 100.0 mg/kg/injection, schedule: Q01DX009 (sc), vehicle: olive oil, sesame oil, peanut oil
[2] = dose: 100.0 mg/kg/injection, schedule: Q04DX003 (sc), vehicle: olive oil, sesame oil, peanut oil
[3] = dose: 200.0 mg/kg/injection, schedule: Q01DX009 (sc), vehicle: olive oil, sesame oil, peanut oil
[4] = dose: 200.0 mg/kg/injection, schedule: Q04DX003 (sc), vehicle: olive oil, sesame oil, peanut oil
[5] = dose: 100.0 mg/kg/injection, schedule: Q04DX003 (ip), vehicle: saline with Tween-80
[6] = dose: 100.0 mg/kg/injection, schedule: Q01DX001 (ip), vehicle: carboxymethylcellulose (CMC)
[7] = dose: 200.0 mg/kg/injection, schedule: Q01DX001 (ip), vehicle: carboxymethylcellulose (CMC)
[8] = dose: 100.0 mg/kg/injection, schedule: Q04DX003 (ip), vehicle: saline
[9] = dose: 200.0 mg/kg/injection, schedule: Q04DX003 (ip), vehicle: saline
[10] = dose: 400.0 mg/kg/injection, schedule: Q04DX003 (ip), vehicle: saline
[11] = dose: 200.0 mg/kg/injection, schedule: Q04DX003 (ip), vehicle: saline with Tween-80
[12] = dose: 400.0 mg/kg/injection, schedule: Q04DX003 (ip), vehicle: saline with Tween-80
[13] = dose: 100.0 mg/kg/injection, schedule: Q01DX001 (ip), vehicle: saline
[14] = dose: 200.0 mg/kg/injection, schedule: Q01DX001 (ip), vehicle: saline
[15] = dose: 400.0 mg/kg/injection, schedule: Q01DX001 (ip), vehicle: saline
[16] = dose: 100.0 mg/kg/injection, schedule: Q01DX009 (ip), vehicle: Klucel (hydroxypropylcellulose) (HPC)
[17] = dose: 200.0 mg/kg/injection, schedule: Q01DX009 (ip), vehicle: Klucel (hydroxypropylcellulose) (HPC)
[18] = dose: 400.0 mg/kg/injection, schedule: Q01DX009 (ip), vehicle: Klucel (hydroxypropylcellulose) (HPC)
[19] = dose: 100.0 mg/kg/injection, schedule: Q01DX009 (ip), vehicle: saline with Tween-80
[20] = dose: 200.0 mg/kg/injection, schedule: Q01DX009 (ip), vehicle: saline with Tween-80
[21] = dose: 400.0 mg/kg/injection, schedule: Q01DX009 (ip), vehicle: saline with Tween-80
[22] = dose: 100.0 mg/kg/injection, schedule: Q04DX003 (ip), vehicle: Klucel (hydroxypropylcellulose) (HPC)
[23] = dose: 200.0 mg/kg/injection, schedule: Q04DX003 (ip), vehicle: Klucel (hydroxypropylcellulose) (HPC)
[24] = dose: 400.0 mg/kg/injection, schedule: Q04DX003 (ip), vehicle: Klucel (hydroxypropylcellulose) (HPC)
[25] = dose: 25.0 mg/kg/injection, schedule: Q01DX009 (ip), vehicle: Klucel (hydroxypropylcellulose) (HPC)
[26] = dose: 50.0 mg/kg/injection, schedule: Q01DX009 (ip), vehicle: Klucel (hydroxypropylcellulose) (HPC)

Measured: T/C

C=CCc1c(C)cc(C)c(C)c1O
inactive: dose: 50.0 mg/kg/injection, schedule: Q01DX009 (sc), vehicle: olive oil, sesame oil, peanut oil 105 % of control | dose: 50.0 mg/kg/injection, schedule: Q04DX003 (sc), vehicle: olive oil, sesame oil, peanut oil 113 % of control | [1] 105 % of control | [2] 106 % of control | [3] 104 % of control | [4] 101 % of control

CCCCCCCCC[n+]1ccc(C(N)=O)cc1
inactive: [5] 98 % of control

Oc1ccc(Br)cc1C=Nc1cnc2ccccc2c1
inactive: [6] 90 % of control | [7] 90 % of control

COC1OC2COc3ccccc3OC2C(NC(N)=S)C1OC (configuration not stated)
inactive: dose: 100.0 mg/kg/injection, schedule: Q01DX009 (ip), vehicle: gum acacia 107 % of control | dose: 200.0 mg/kg/injection, schedule: Q01DX009 (ip), vehicle: gum acacia 102 % of control | dose: 400.0 mg/kg/injection, schedule: Q01DX009 (ip), vehicle: gum acacia 93 % of control

NC(=O)CCCN1CCCC1=O
inactive: dose: 100.0 mg/kg/injection, schedule: Q01DX009 (ip), vehicle: saline 100 % of control | [8] 100 % of control | dose: 200.0 mg/kg/injection, schedule: Q01DX009 (ip), vehicle: saline 111 % of control | [9] 101 % of control | dose: 400.0 mg/kg/injection, schedule: Q01DX009 (ip), vehicle: saline 110 % of control | [10] 97 % of control

CN(C(=O)Sc1ccc([N+](=O)[O-])cc1)c1ccccc1
inactive: [5] 91 % of control | [11] 89 % of control | [12] 91 % of control

Cc1cc2nc(Cc3nc4cc(C)c(C)cc4[nH]3)[nH]c2cc1C
inactive: dose: 50.0 mg/kg/injection, schedule: Q01DX Z (ip), vehicle: saline 105 % of control | [13] 92 % of control | dose: 100.0 mg/kg/injection, schedule: Q01DX Z (ip), vehicle: saline 95 % of control | [8] 100 % of control | [14] 93 % of control | dose: 200.0 mg/kg/injection, schedule: Q01DX Z (ip), vehicle: saline 100 % of control | [9] 92 % of control | [15] 90 % of control | dose: 400.0 mg/kg/injection, schedule: Q01DX Z (ip), vehicle: saline 97 % of control | [10] 86 % of control

ClCCN(CCN(CCCl)c1ccccc1)c1ccccc1
inactive: [16] 113 % of control | [17] 108 % of control | [18] 115 % of control

CCOC(=O)CNC(=O)C(CSCc1cccs1)NC(=O)OCc1ccccc1 (configuration not stated)
inactive: [19] 100 % of control | [20] 94 % of control | [21] 90 % of control

O=C(Cc1cccc([N+](=O)[O-])c1)Nc1ccccc1
inactive: [16] 91 % of control | [22] 96 % of control | [17] 98 % of control | [23] 96 % of control | [18] 93 % of control | [24] 102 % of control

CCCOS(C)(=O)=O
inactive: [13] 100 % of control | [14] 100 % of control | [15] 100 % of control

Cc1ccc(C2CCCCC2OS(=O)(=O)c2ccc(C)cc2)cc1 (configuration not stated)
inactive: dose: 100.0 mg/kg/injection, schedule: Q01DX001 (ip), vehicle: steriod suspending solution 102 % of control | dose: 200.0 mg/kg/injection, schedule: Q01DX001 (ip), vehicle: steriod suspending solution 95 % of control | dose: 400.0 mg/kg/injection, schedule: Q01DX001 (ip), vehicle: steriod suspending solution 109 % of control

ClCC1CC2c3ccccc3C1c1ccccc12 (configuration not stated)
inactive: [8] 94 % of control | [9] 87 % of control | [10] 90 % of control

O=c1cc(O)cc(Cl)[nH]1
inactive: [13] 96 % of control | [14] 91 % of control | [15] 96 % of control

Cc1ccc(NC(=O)c2ccc(C)c([N+](=O)[O-])c2)c(C)c1
inactive: [1] 86 % of control | [2] 100 % of control | [3] 94 % of control | [4] 105 % of control | dose: 400.0 mg/kg/injection, schedule: Q01DX009 (sc), vehicle: olive oil, sesame oil, peanut oil 89 % of control | dose: 400.0 mg/kg/injection, schedule: Q04DX003 (sc), vehicle: olive oil, sesame oil, peanut oil 97 % of control

COc1ccc2nc3cc(Cl)ccc3c(Nc3ccc(O)c(CNCCO)c3)c2c1
inactive: dose: 75.0 mg/kg/injection, schedule: Q01DX001 (ip), vehicle: carboxymethylcellulose (CMC) 101 % of control

COc1ccc(C(=O)N/N=C/c2c(Cl)cccc2Cl)cc1
inactive: [25] 92 % of control | [26] 90 % of control | [16] 93 % of control and 104 % of control

C[N+](C)(C)CCOC(=O)c1ccccc1CBr
inactive: dose: 1.5 mg/kg/injection, schedule: Q04DX002 (ip), vehicle: other 98 % of control | dose: 3.0 mg/kg/injection, schedule: Q04DX002 (ip), vehicle: other 90 % of control | dose: 3.13 mg/kg/injection, schedule: Q01DX009 (ip), vehicle: saline 101 % of control | dose: 6.0 mg/kg/injection, schedule: Q04DX002 (ip), vehicle: other 105 % of control | dose: 6.25 mg/kg/injection, schedule: Q01DX009 (ip), vehicle: saline 97 % of control | dose: 6.25 mg/kg/injection, schedule: Q04DX003 (ip), vehicle: saline 105 % of control | dose: 12.5 mg/kg/injection, schedule: Q04DX003 (ip), vehicle: saline 91 % of control

Nc1nc(N)nc(Nc2ccc([As]=O)cc2)n1 (configuration not stated)
inactive: [25] 112 % of control | [26] 117 % of control | [16] 102 % of control

O=C(NCCCOc1ccc([N+](=O)[O-])cc1Cl)Nc1cccc(S(=O)(=O)F)c1
inactive: [16] 92 % of control | [22] 106 % of control | [17] 98 % of control | [23] 103 % of control | [18] 103 % of control | [24] 95 % of control

CCCOC(=O)c1ccc(NCC(C)(C)N(C)C)cc1
inactive: [8] 100 % of control | [9] 97 % of control | [10] 97 % of control

O=C(CC(Br)C(=O)c1ccccc1)c1ccccc1 (configuration not stated)
inactive: [19] 97 % of control | [20] 97 % of control | [21] 94 % of control

Cc1cc(/C=C\c2ccc3ccccc3[n+]2C)c(O)c2ncccc12
inactive: [6] 110 % of control | [7] 93 % of control

COc1ccc(CCNC(=O)C2(C(C)C)OC3(O)C4CCCN4C(=O)C(C(C)C)N3C2=O)cc1OC (configuration not stated)
inactive: dose: 12.5 mg/kg/injection, schedule: Q04DX003 (ip), vehicle: alcohol 98 % of control | dose: 25.0 mg/kg/injection, schedule: Q04DX003 (ip), vehicle: alcohol 97 % of control | dose: 25.0 mg/kg/injection, schedule: Q04DX003 (ip), vehicle: saline with Tween-80 98 % of control | dose: 50.0 mg/kg/injection, schedule: Q04DX003 (ip), vehicle: alcohol 104 % of control | dose: 50.0 mg/kg/injection, schedule: Q04DX003 (ip), vehicle: saline with Tween-80 114 % of control | dose: 100.0 mg/kg/injection, schedule: Q04DX003 (ip), vehicle: alcohol 101 % of control | [5] 98 % of control | [11] 111 % of control

C(=Nc1ccccc1)c1ccc[nH]1
inactive: [5] 100 % of control | [11] 93 % of control | [12] 96 % of control

O=[N+]([O-])c1ccc(CC(O)c2ccccc2)cc1 (configuration not stated)
inactive: dose: 50.0 mg/kg/injection, schedule: Q04DX003 (ip), vehicle: Klucel (hydroxypropylcellulose) (HPC) 105 % of control | [16] 111 % of control | [22] 102 % of control | [17] 107 % of control | [23] 105 % of control | [18] 103 % of control | [24] 105 % of control
